System: Dkk1-LRP5-TCF-Luciferase
Assay: Functional Dkk1-LRP5-TCF-Luciferase Assay in U2OS Cells
Settings: for fold induction at 2 µM / fold induction at 20 µM / EC50: Homo sapiens, U2OS; for fold induction at 2 µM: read-out: B = TCF ACTIVITY/DMSO CONTROL Fold induction @ 2.0 uM, 2.0 uM compound; for fold induction at 20 µM: read-out: C = TCF ACTIVITY/DMSO CONTROL Fold induction @ 20.0 uM, 20.0 uM compound; for A = MAX FOLD Induction/DMSO CONTROL: maximum fold induction over DMSO control

A = MAX FOLD Induction/DMSO CONTROL [fold]	EC50 [µM]	SMILES	fold induction at 2 µM	fold induction at 20 µM
–	–	CN(C)C(=O)N1CCC(N(C)c2nccc(-c3ccc4ccccc4c3)n2)CC1 [N,N-dimethyl-4-{methyl[4-(2-naphthyl)pyrimidin-2-yl]amino}piperidine-1-carboxamide]	1.37	0.68
–	–	CN(C)C(=O)NCCC1CCN(c2nccc(-c3ccc4ccccc4c3)n2)CC1 [N,N-dimethyl-N′-(2-{1-[4-(2-naphthyl)pyrimidin-2-yl]piperidin-4-yl}ethyl)urea]	1.48	0.18
–	–	CN(C)C(=O)NCCN1CCN(c2nccc(-c3ccc4ccccc4c3)n2)CC1 [N,N-dimethyl-N′-(2-{4-[4-(2-naphthyl)pyrimidin-2-yl]piperazin-1-yl}ethyl)urea]	1.98	–
–	–	CN(C)S(=O)(=O)N[C@H]1CC[C@H](Nc2nccc(-c3ccc4ccccc4c3)n2)CC1 [N,N-dimethyl-N′-(trans-4-{[4-(2-naphthyl)pyrimidin-2-yl]amino}cyclohexyl)sulfamide]	1.65	1.74
2.270	–	CN(C)C(=O)N[C@H]1CC[C@H](Nc2nccc(-c3ccc4ccccc4c3)n2)CC1 [N,N-dimethyl-N′-(trans-4-{[4-(2-naphthyl)pyrimidin-2-yl]amino}cyclohexyl)urea]	2.78	1.61
–	–	CN(C)C(=O)NCC1CN(c2nccc(-c3ccc4ccccc4c3)n2)C1 [N,N-dimethyl-N′-({1-[4-(2-naphthyl)pyrimidin-2-yl]azetidin-3-yl}methyl)urea]	0.99	1.43
–	–	CN(C)S(=O)(=O)NCC1CCN(c2nccc(-c3ccc4ccccc4c3)n2)CC1 [N,N-dimethyl-N′-({1-[4-(2-naphthyl)pyrimidin-2-yl]piperidin-4-yl}methyl)sulfamide]	1.05	1.11
1.690	4.03	CN(C)C(=O)NCC1CCN(c2nccc(-c3ccc4ccccc4c3)n2)CC1 [N,N-dimethyl-N′-({1-[4-(2-naphthyl)pyrimidin-2-yl]piperidin-4-yl}methyl)urea]	1.12	2.36
–	–	CN(C)S(=O)(=O)NCC1CCN(c2nccc(-c3ccc4ccccc4c3)n2)C1 (stereo not drawn) [N,N-dimethyl-N′-({1-[4-(2-naphthyl)pyrimidin-2-yl]pyrrolidin-3-yl}methyl)sulfamide]	0.99	1.2
–	–	CN(C)C(=O)NCC1CCN(c2nccc(-c3ccc4ccccc4c3)n2)C1 (stereo not drawn) [N,N-dimethyl-N′-({1-[4-(2-naphthyl)pyrimidin-2-yl]pyrrolidin-3-yl}methyl)urea]	0.84	1.15
–	–	CN(C)S(=O)(=O)NC1CCCN(c2nccc(-c3ccc4ccccc4c3)n2)CC1 (stereo not drawn) [N,N-dimethyl-N′-{1-[4-(2-naphthyl)pyrimidin-2-yl]azepan-4-yl}sulfamide]	1.12	1.01
–	–	CN(C)C(=O)NC1CCCN(c2nccc(-c3ccc4ccccc4c3)n2)CC1 (stereo not drawn) [N,N-dimethyl-N′-{1-[4-(2-naphthyl)pyrimidin-2-yl]azepan-4-yl}urea]	1.74	1.75
–	–	CN(C)CCN[C@@H]1CCN(c2nccc(-c3ccc4ccccc4c3)n2)C1 [N,N-dimethyl-N′-{(3R)-1-[4-(2-naphthyl)pyrimidin-2-yl]pyrrolidin-3-yl}ethane-1,2-diamine]	2.5	–
–	–	CN(C)S(=O)(=O)N[C@@H]1CCN(c2nccc(-c3ccc4ccccc4c3)n2)C1 [N,N-dimethyl-N′-{(3R)-1-[4-(2-naphthyl)pyrimidin-2-yl]pyrrolidin-3-yl}sulfamide]	1.42	0.82
–	–	CN(C)C(=O)N[C@@H]1CCN(c2nccc(-c3ccc4ccccc4c3)n2)C1 [N,N-dimethyl-N′-{(3R)-1-[4-(2-naphthyl)pyrimidin-2-yl]pyrrolidin-3-yl}urea]	1.79	0.26
–	–	CN(C)CCN[C@H]1CCN(c2nccc(-c3ccc4ccccc4c3)n2)C1 [N,N-dimethyl-N′-{(3S)-1-[4-(2-naphthyl)pyrimidin-2-yl]pyrrolidin-3-yl}ethane-1,2-diamine]	1.5	–
–	–	CN(C)S(=O)(=O)N[C@H]1CCN(c2nccc(-c3ccc4ccccc4c3)n2)C1 [N,N-dimethyl-N′-{(3S)-1-[4-(2-naphthyl)pyrimidin-2-yl]pyrrolidin-3-yl}sulfamide]	1.87	–
–	–	CN(C)C(=O)N[C@H]1CCN(c2nccc(-c3ccc4ccccc4c3)n2)C1 [N,N-dimethyl-N′-{(3S)-1-[4-(2-naphthyl)pyrimidin-2-yl]pyrrolidin-3-yl}urea]	0.94	1.65
–	–	CCCN(C)CCN(C)[C@@H]1CCN(c2nccc(-c3ccc4ccccc4c3)n2)C1 [N,N′-dimethyl-N-{(3R)-1-[4-(2-naphthyl)pyrimidin-2-yl]pyrrolidin-3-yl}-N′-propylethane-1,2-diamine]	3.4	–
–	–	CNCCN(C)[C@@H]1CCN(c2nccc(-c3ccc4ccccc4c3)n2)C1 [N,N′-dimethyl-N-{(3R)-1-[4-(2-naphthyl)pyrimidin-2-yl]pyrrolidin-3-yl}ethane-1,2-diamine]	1.2	–

A = MAX FOLD Induction/DMSO CONTROL [fold]	EC50 [µM]	SMILES	fold induction at 2 µM	fold induction at 20 µM
2.428	5.5	CC(=O)N1CCC(Nc2nccc(-c3ccc4ccccc4c3)n2)CC1 [N-(1-acetylpiperidin-4-yl)-4-(2-naphthyl)pyrimidin-2-amine]	1.09	2.53
1.650	–	CC(=O)N1CCC(N(C)c2nccc(-c3ccc4ccccc4c3)n2)CC1 [N-(1-acetylpiperidin-4-yl)-N-methyl-4-(2-naphthyl)pyrimidin-2-amine]	1.37	0.37
1.490	–	O=C(c1ccccc1)N1CCC(Nc2nccc(-c3ccc4ccccc4c3)n2)CC1 [N-(1-benzoylpiperidin-4-yl)-4-(2-naphthyl)pyrimidin-2-amine]	1.95	0.01
–	–	CN(c1nccc(-c2ccc3ccccc3c2)n1)C1CCN(C(=O)c2ccccc2)CC1 [N-(1-benzoylpiperidin-4-yl)-N-methyl-4-(2-naphthyl)pyrimidin-2-amine]	1.85	–
–	–	CN(c1nccc(-c2ccc3ccccc3c2)n1)C1CCN(Cc2ccccc2)CC1 [N-(1-benzylpiperidin-4-yl)-N-methyl-4-(2-naphthyl)pyrimidin-2-amine]	1.55	1.24
1.853	5.7	c1ccc2cc(-c3ccnc(NCCN4CCOCC4)n3)ccc2c1 [N-(2-morpholin-4-ylethyl)-4-(2-naphthyl)pyrimidin-2-amine]	2.11	2.44
–	–	O=C(NCCC1CCN(c2nccc(-c3ccc4ccccc4c3)n2)CC1)Nc1ccccc1 [N-(2-{1-[4-(2-naphthyl)pyrimidin-2-yl]piperidin-4-yl}ethyl)-N′-phenylurea]	1	1.5
1.360	–	CC(=O)NCCC1CCN(c2nccc(-c3ccc4ccccc4c3)n2)CC1 [N-(2-{1-[4-(2-naphthyl)pyrimidin-2-yl]piperidin-4-yl}ethyl)acetamide]	2.27	1
–	–	O=C(NCCC1CCN(c2nccc(-c3ccc4ccccc4c3)n2)CC1)c1ccccc1 [N-(2-{1-[4-(2-naphthyl)pyrimidin-2-yl]piperidin-4-yl}ethyl)benzamide]	0.91	1.95
0.880	–	CS(=O)(=O)NCCC1CCN(c2nccc(-c3ccc4ccccc4c3)n2)CC1 [N-(2-{1-[4-(2-naphthyl)pyrimidin-2-yl]piperidin-4-yl}ethyl)methanesulfonamide]	–	–
1.112	–	NC(=O)NCCC1CCN(c2nccc(-c3ccc4ccccc4c3)n2)CC1 [N-(2-{1-[4-(2-naphthyl)pyrimidin-2-yl]piperidin-4-yl}ethyl)urea]	–	–
–	–	N=C(N)OC(=N)NCCN1CCN(c2nccc(-c3ccc4ccccc4c3)n2)CC1 [N-(2-{4-[4-(2-naphthyl)pyrimidin-2-yl]piperazin-1-yl}ethyl)dicarbonimidic diamide]	1.22	0.49
1.700	5.4	CS(=O)(=O)NCCN1CCN(c2nccc(-c3ccc4ccccc4c3)n2)CC1 [N-(2-{4-[4-(2-naphthyl)pyrimidin-2-yl]piperazin-1-yl}ethyl)methanesulfonamide]	1.31	1.93
2.120	23.8	c1ccc2cc(-c3ccnc(NCCCN4CCOCC4)n3)ccc2c1 [N-(3-morpholin-4-ylpropyl)-4-(2-naphthyl)pyrimidin-2-amine]	1.68	3.27
–	–	COc1ccc(CNc2nccc(-c3ccc4ccccc4c3)n2)cc1 [N-(4-methoxybenzyl)-4-(2-naphthyl)pyrimidin-2-amine]	–	1.12
3.140	–	c1ccc2cc(-c3ccnc(NCC4CNC4)n3)ccc2c1 [N-(azetidin-3-ylmethyl)-4-(2-naphthyl)pyrimidin-2-amine]	1.46	1.15
–	–	CCC(C)Nc1nccc(-c2ccc3ccccc3c2)n1 (stereo not drawn) [N-(sec-butyl)-4-(2-naphthyl)pyrimidin-2-amine]	1.01	1.34
–	–	CC(C)(C)Nc1nccc(-c2ccc3ccccc3c2)n1 [N-(tert-butyl)-4-(2-naphthyl)pyrimidin-2-amine]	1.75	–
3.695	18.9	CC(=O)N[C@H]1CC[C@H](Nc2nccc(-c3ccc4ccccc4c3)n2)CC1 [N-(trans-4-{[4-(2-naphthyl)pyrimidin-2-yl]amino}cyclohexyl)acetamide]	1.9	3.2

— patent US20090054392A1, “NAPHTHYLPYRIMIDINE, NAPHTHYLPYRAZINE AND NAPHTHYLPYRIDAZINE ANALOGS AND THEIR USE AS AGONISTS OF THE WNT-BETA-CATENIN CELLULAR MESSAGING SYSTEM” (Wyeth, priority 2007, published 2009)
